Experimental data reported in PMC3375280 (PLoS ONE, 2012).
Where a chain is given by its changes, count along the chain named.

Tests used:
[1] = target: T1, AT1 C76A/F117C/C289A mutant receptor (Rattus norvegicus, UniProt P25095, C289A/C76A/F117C); assay: competition binding, C76A/F117C/C289A mutant; details: for Kd ratio relative to WT (in parentheses): C76A/F117C/C289A / WT; for Kd: C76A/F117C/C289A, COS1 membranes, read-out: Binding affinity (Kd)
T1 construct: expressed in transfected cells; host or cells: COS1 cells (membranes)
T1 sequence (P25095 1-359 C76A/F117C/C289A): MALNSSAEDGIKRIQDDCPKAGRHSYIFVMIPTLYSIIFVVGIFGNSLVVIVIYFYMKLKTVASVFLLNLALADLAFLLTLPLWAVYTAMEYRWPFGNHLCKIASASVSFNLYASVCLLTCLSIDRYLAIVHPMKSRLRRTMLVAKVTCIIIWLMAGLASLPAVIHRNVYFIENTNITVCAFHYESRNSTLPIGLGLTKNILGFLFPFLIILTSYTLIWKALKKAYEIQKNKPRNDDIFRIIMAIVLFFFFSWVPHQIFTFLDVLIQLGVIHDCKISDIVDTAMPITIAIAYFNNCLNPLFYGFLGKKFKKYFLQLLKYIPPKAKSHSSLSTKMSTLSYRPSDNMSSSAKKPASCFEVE
Description: (§1) The Kd and Bmax values of receptor binding were determined by ^125I-[Sar^1, Ile^8] […] Membranes expressing the WT or mutant AT1 receptors were incubated with 100 pM ^125I-[Sar^1, Ile^8] […] The binding reaction was terminated by filtering the incubation mixture through Whatman GF/C glass filters, and the residues were extensively washed further with binding buffer. The bound ligand fraction was determined from the counts per minute (cpm) remaining on the membrane. Binding kinetics values were determined as previously described.

[2] = target: T2, AT1 C76A/S109C/C289A mutant receptor (Rattus norvegicus, UniProt P25095, C289A/C76A/S109C); assay: competition binding, C76A/S109C/C289A mutant; details: for Kd ratio relative to WT (in parentheses): C76A/S109C/C289A / WT; for Kd: C76A/S109C/C289A, COS1 membranes, read-out: Binding affinity (Kd)
T2 construct: expressed in transfected cells; host or cells: COS1
T2 sequence (P25095 1-359 C76A/S109C/C289A): T1 sequence (P25095 1-359 C76A/F117C/C289A) with S109C, C117F
Description: as §1

[3] = target: T3, AT1 A106G mutant receptor (Rattus norvegicus, UniProt P25095, A106G); assay: competition binding, A106G mutant; details: for Kd ratio relative to WT (in parentheses): A106G / WT; for Kd: A106G, COS1 membranes, read-out: Binding affinity (Kd)
T3 construct: expressed in transfected cells; host or cells: COS1
T3 sequence (P25095 1-359 A106G): T1 sequence (P25095 1-359 C76A/F117C/C289A) with A76C, A106G, C117F, A289C
Description: as §1

[4] = target: T4, AT1 wild-type (WT) receptor (Rattus norvegicus, UniProt P25095); assay: 125I-[Sar1,Ile8]AngII competition binding, wild-type receptor; details: for Kd / Kd ratio relative to olmesartan (in parentheses): WT; for Kd: COS1 cell membranes, 100 pM 125I-[Sar1,Ile8]AngII, 1 h 22°C, read-out: Binding affinity (Kd); for Kd ratio relative to olmesartan (in parentheses): compound Kd / olmesartan Kd
T4 construct: expressed in transfected cells; host or cells: COS1
T4 sequence (P25095 1-359): T1 sequence (P25095 1-359 C76A/F117C/C289A) with A76C, C117F, A289C
Description: as §1

[5] = target: T5, AT1 C76A/A114C/C289A mutant receptor (Rattus norvegicus, UniProt P25095, A114C/C289A/C76A); assay: competition binding, C76A/A114C/C289A mutant; details: for Kd ratio relative to WT (in parentheses): C76A/A114C/C289A / WT; for Kd: C76A/A114C/C289A, COS1 membranes, read-out: Binding affinity (Kd)
T5 construct: expressed in transfected cells; host or cells: COS1 cells (membranes)
T5 sequence (P25095 1-359 C76A/A114C/C289A): T1 sequence (P25095 1-359 C76A/F117C/C289A) with A114C, C117F
Description: as §1

[6] = target: T6, AT1 C76A/Y113C/C289A mutant receptor (Rattus norvegicus, UniProt P25095, C289A/C76A/Y113C); assay: competition binding, C76A/Y113C/C289A mutant; details: for Kd ratio relative to WT (in parentheses): C76A/Y113C/C289A / WT; for Kd: C76A/Y113C/C289A, COS1 membranes, read-out: Binding affinity (Kd)
T6 construct: expressed in transfected cells; host or cells: COS1 cells (membranes)
T6 sequence (P25095 1-359 C76A/Y113C/C289A): T1 sequence (P25095 1-359 C76A/F117C/C289A) with Y113C, C117F
Description: as §1

[7] = target: T7, wild-type (WT) AT1 receptor (Rattus norvegicus, UniProt P25095); assay: inositol phosphate (IP) production in COS1 cells expressing WT AT1 receptor; details: 1 µM compound, vs basal IP production
T7 sequence (P25095 1-359): T1 sequence (P25095 1-359 C76A/F117C/C289A) with A76C, C117F, A289C
Description: The test compounds were added 1 h before the measurement of IP.
The WT and mutant AT1 receptors were transiently transfected into COS1 cells using Lipofectamine 2000 liposomal reagent (Roche Applied Science) according to the manufacturer’s instructions.
Cells expressing the WT and mutant AT1 receptors were incubated for 30 minutes at 22°C with or without the indicated concentrations of ARBs. The cells were washed-out once with the use of excess cold HBSS, and used in an IP production study. Total soluble IP was measured by the perchloric acid extraction method, as described previously [16].

SMILES	Kd ratio relative to WT (in parentheses) [1] [fold]	Kd [1] [nM]	Kd ratio relative to WT (in parentheses) [2] [fold]	Kd [2] [nM]	Kd ratio relative to WT (in parentheses) [3] [fold]	Kd [3] [nM]	Kd ratio relative to WT (in parentheses) ([4]; WT / WT) [fold]	Kd [4] [nM]	Kd ratio relative to olmesartan (in parentheses) [4] [fold]	Kd ratio relative to WT (in parentheses) [5] [fold]	Kd [5] [nM]	Kd ratio relative to WT (in parentheses) [6] [fold]	Kd [6] [nM]	Pharmacological behaviour toward IP production (agonism / neutral antagonism / inverse agonism) [7]
CCCc1nc(C(C)(C)O)c(C(=O)O)n1Cc1ccc(-c2ccccc2-c2nnn[nH]2)cc1 [Olmesartan, olmesartan, reference compound]	1.0	2.4 ± 1.3	13	29 ± 5	2.6	6.1 ± 2.2	1.0	2.3 ± 0.8	1.0	2.4	5.5 ± 2.6	248	570 ± 197	inverse agonist
CCCc1nc(C(C)(C)O)c(C(N)=O)n1Cc1ccc(-c2ccccc2-c2nnn[nH]2)cc1 [R239470]	2.8	2.2 ± 0.2	14	11 ± 3	6.0	4.8 ± 1.5	–	0.8 ± 0.3	0.3	2.0	1.6 ± 0.7	340	272 ± 129	neutral antagonist
CCCc1nc(C(C)(C)O)c(C(N)=O)n1Cc1ccc(-c2cc(Cc3ccc(O)cc3)ccc2-c2nnn[nH]2)cc1 [R794847]	0.6	29 ± 9	2.0	96 ± 18	17	792 ± 202	–	48 ± 12	–	2.7	128 ± 15	134	6420 ± 2570	agonism
